Assay results reported in PubChem BioAssay AID179 (DTP/NCI, 2004).
Active and inactive are the calls of the source.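 How the source made its calls: active means compounds giving half or more protection of infected cells from virus-caused growth loss, again on retest; inactive means the rest.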

System: CEM cells HIV-1 protection, formazan growth assay
Assay: NCI AIDS Antiviral Assay
Details: for IC50: measured here: growth of uninfected CEM cells
In short: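 Screen of anti-HIV-1 activity in human CEM cells using a formazan-based growth measurement at five drug concentrations. Hits with 50% or greater protection were repeated, and confirmation required reproducible complete protection.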

SMILES: CCOC(=O)C(NS(=O)(=O)c1ccccc1)(C(F)(F)F)P(=O)(OCC(C)C)OCC(C)C (configuration not stated)
- EC50: > 200 µM
- IC50: 64.6 µM

SMILES: Clc1ccc(SSc2ccccc2)cc1
- outcome: inactive

SMILES: Cc1cn(C2CC(COCc3ccccc3)N(CCO)O2)c(=O)[nH]c1=O (configuration not stated)
- EC50: > 200 µM
- IC50: > 200 µM

SMILES: CCCN=c1ssc(=O)n1CCC
- EC50: > 200 µM
- IC50: 11.2 µM

SMILES: Cc1cc(NS(=O)(=O)c2ccc(N=[N+]([O-])c3ccc(S(=O)(=O)Nc4cc(C)on4)cc3)cc2)no1
- EC50: > 200 µM
- IC50: > 200 µM

SMILES: CCc1cccc(CC)c1NC(=S)N/C=C(\C#N)S(=O)(=O)c1ccc(C)cc1
- EC50: > 200 µM
- IC50: > 200 µM

SMILES: COc1ccc(CNc2nc3cc(C(F)(F)F)ccc3nc2C)cc1OC
- EC50: > 19.1 µM
- IC50: 14.5 µM

SMILES: Nc1nc(N)c(N=O)c(=O)[nH]1.[Cd]
- EC50: > 200 µM
- IC50: 1.74 µM

SMILES: Cn1cnc(=S)c2ccccc21
- EC50: > 200 µM
- IC50: > 200 µM

SMILES: CCC/C(Cl)=N\OC(=O)Nc1ccc(Br)cc1
- outcome: inactive

SMILES: O=C1NC(=O)C(=Cc2cccc(Cl)c2)C(=O)N1
- EC50: > 145 µM
- IC50: > 145 µM

SMILES: CC1CN=C(N(C(=O)Nc2ccccc2)c2ccc(Cl)c(Cl)c2)S1 (configuration not stated)
- EC50: > 200 µM
- IC50: 138 µM

SMILES: COC(=O)CC(NC(=O)OCc1ccccc1)C(C(=O)OCc1ccccc1)C1(C)OCCO1 (configuration not stated)
- EC50: > 50.1 µM
- IC50: 34.7 µM

SMILES: CCOC(=O)C(Cc1cccc2ccccc12)S(=O)(=O)c1ccc(C)cc1 (configuration not stated)
- EC50: > 66.1 µM
- IC50: 18.6 µM

SMILES: CC(=O)Oc1ccc2c(C)cc(=O)oc2c1
- EC50: > 200 µM
- IC50: 170 µM

SMILES: CSc1nc(Nc2ccccc2Cl)c2c(N)nn(C)c2n1
- EC50: > 200 µM
- IC50: > 200 µM

SMILES: CC1OC(OP(=O)(OCc2ccccc2)OCc2ccccc2)C(OC(=O)c2ccccc2)C(OC(=O)c2ccccc2)C1I (configuration not stated)
- EC50: > 25.1 µM
- IC50: > 25.1 µM

SMILES: Cn1cc/c(=N\N=c2/ccn(C)c3ccccc23)c2ccccc21
- EC50: > 115 µM
- IC50: 5.01 µM

SMILES: Nc1nc(C[P+](c2ccccc2)(c2ccccc2)c2ccccc2)c(CCCCc2ccccc2)c(=O)[nH]1
- EC50: > 200 µM
- IC50: 33.1 µM

SMILES: COC(=O)C1=C(C(=O)OC)C2C3CC4C(C13)C42
- EC50: > 200 µM
- IC50: > 200 µM

SMILES: O=[N+]([O-])c1cccc(C2=NOC3CCCC23)c1 (configuration not stated)
- outcome: inactive

SMILES: Cn1ccnc1CCc1ccc(Cl)c(Cl)c1
- EC50: > 851 µM
- IC50: 97.7 µM

SMILES: COC1=C(C(=O)O)P(C)(=O)CC1 (configuration not stated)
- EC50: > 214 µM
- IC50: > 214 µM

SMILES: COC(=O)CC(=O)OSc1ccccc1
- EC50: > 251 µM
- IC50: 18.2 µM

SMILES: O=C(N/N=C/c1c(-c2ccccc2)no[n+]1[O-])N1CCOCC1
- EC50: > 100 µM
- IC50: > 100 µM

SMILES: CC1COS(=O)N1c1ccccc1 (configuration not stated)
- EC50: > 479 µM
- IC50: > 479 µM

SMILES: C[C@@H](NC(=O)[C@@H]1C[C@]1(C)COC(=O)c1cc([N+](=O)[O-])cc([N+](=O)[O-])c1)c1cccc2ccccc12
- EC50: > 200 µM
- IC50: 115 µM

SMILES: C=C1C(C)C2C(Cc3ccccc3)NC(=O)C23C(OC(C)=O)/C=C/C(C)(O)CC(C)C/C=C/C3C1O (configuration not stated)
- EC50: > 2 µM
- IC50: 0.0977 µM

SMILES: Cc1cc(-c2ccccc2)nc(Nc2nc3ccccc3o2)n1
- EC50: > 61.7 µM
- IC50: > 61.7 µM

SMILES: Cc1cc(S(=O)(=O)Nc2nc(N)nc(N(C)C)n2)c(SC(C(=O)O)c2ccccc2)cc1Cl (configuration not stated)
- EC50: 85.1 µM
- IC50: > 200 µM

SMILES: CCOP(=O)(O)CN1CCNCCN(CP(=O)(O)OCC)CCNCC1
- EC50: > 100 µM
- IC50: > 100 µM

SMILES: CC1(C)OC(=O)c2cc(C(=CC=O)c3cc(Cl)c4c(c3)C(=O)OC(C)(C)O4)cc(Cl)c2O1
- EC50: > 200 µM
- IC50: 36.3 µM

SMILES: CCOc1ccccc1NC(=O)C(=O)C1C(=O)Nc2ccccc2S1=O (configuration not stated)
- outcome: inactive

SMILES: CCC(=O)OC1C(OC2C(C)C(OC3CC(C)(OC)C(O)C(C)O3)C(C)C(=O)OC(CC)C(C)(O)C(O)C(C)C(=O)C(C)CC2(C)O)OC(C)CC1N(C)C (configuration not stated)
- EC50: > 200 µM
- IC50: 70.8 µM

SMILES: C=C1C(=O)OCC2C(C(=O)O)=CC3C(C)C(C)=CC123 (configuration not stated)
- EC50: > 692 µM
- IC50: 11.2 µM

SMILES: O=c1[nH]c2ccsc2c(=O)n1COCc1ccccc1
- EC50: > 200 µM
- IC50: > 200 µM

SMILES: COc1cc(-c2ccc(N=Nc3c(S(=O)(=O)O)cc4cc(S(=O)(=O)O)cc(N)c4c3O)c(OC)c2)ccc1N=Nc1c(S(=O)(=O)O)cc2cc(S(=O)(=O)O)cc(N)c2c1O
- outcome: active

SMILES: COC(=O)CC(NC(=O)OCc1ccccc1)C(C(C)=O)C(=O)OCc1ccccc1 (configuration not stated)
- EC50: > 75.9 µM
- IC50: > 75.9 µM

SMILES: O=C(O)c1n[nH]nc1Cl
- EC50: > 200 µM
- IC50: > 200 µM

SMILES: NCCCCCNOCCCN
- EC50: > 200 µM
- IC50: 132 µM

SMILES: COC(=O)CNC(=O)C(CSC(=O)OCC1c2ccccc2-c2ccccc21)NC(=O)CCC(NC(=O)OCC1c2ccccc2-c2ccccc21)C(=O)OC (configuration not stated)
- EC50: > 200 µM
- IC50: 29.5 µM

SMILES: O=[N+]([O-])c1ccc(-c2csc(N=Nc3c(O)[nH]c4ccccc34)n2)cc1
- EC50: 141 µM
- IC50: > 200 µM

SMILES: Cc1occc1C(=S)Nc1ccc(Cl)c(C(=O)OCC(F)(F)F)c1
- EC50: 0.0195 µM
- IC50: 19.1 µM

SMILES: Clc1ccc(-c2nnc(C34CC5CC(CC(C5)C3)C4)o2)cc1
- EC50: > 200 µM
- IC50: > 200 µM

SMILES: S=C1NCCNC(=S)SS1
- EC50: > 34.7 µM
- IC50: > 34.7 µM

SMILES: CO/C=C/CCCN(CC#N)Cc1ccccc1
- EC50: > 27.5 µM
- IC50: > 27.5 µM
